This note sets out measurements from patent publication US8658129B2, “Agents and methods for the imaging of myelin basic protein” (General Electric Company, priority 2009, dated 2014).

The nature of data set [1]: Absorbance and fluorescence spectra of the agents. Type of data set: physicochemical. Conditions: for Excitation (DMSO): excitation maximum in 100% DMSO; for Excitation(MeOH): excitation maximum in absolute methanol; for ExcitationddH2O: excitation maximum in distilled/deionized water; for Emission(DMSO): fluorescence emission maximum in DMSO; for Emission(MeOH): fluorescence emission maximum in MeOH; for EmissionddH2O: fluorescence emission maximum in ddH2O. The procedure:
Absorbance spectra of the agents were measured using a UV-Vis spectrometer (PerkinElmer Lambda™ 20, PerkinElmer, Inc., Waltham Mass.) in wavelengths ranging from 200-to-800 nm in 100% dimethylsulfoxide (DMSO), absolute methanol (MeOH), and distilled/deionized water (ddH2O). The wavelength corresponding to the maximum absorbance is recorded and used as the excitation wavelength for future fluorescence measurements.
The fluorescence spectra of the agents were collected in DMSO, MeOH, and ddH2O under continuous excitation using a xenon short arc light source (Ushio UXL 75W, Ushio America, Inc., Cyress Calif.) equipped fluorimeter (350-900 nm; PTI Fluorimeter, Photon Technology International Birmingham, N.J.). A+ indicates binding to nerves using the ex vivo histochemical assay.

A further data set relates to nerve tissue sections. Kind of data set: Ex vivo staining of nerve tissue sections by the agents (histochemical assay). Type of data set: binding, rat. Conditions: for Nerve binding, ex vivo: 10 uM agent, 20 minutes, nerve tissue sections; for staining of the trigeminal nerves: rat trigeminal nerve sections, FIG. 1. The arrangement: key to Nerve binding, ex vivo: A+ indicates binding to nerves using the ex vivo histochemical assay. The source says: Various nerves including sciatic, femoral, brachial plexus, trigeminal, optic, and penile were harvested from male Sprague Dawley rats or male CD-1 mice. Tissue was fixed by perfusion and/or post-fixation with formalin. Following post-fixation, tissue was cryoprotected in a 20% sucrose solution made in phosphate buffered saline (PBS). Nerves were then flash-frozen using methanol and dry ice in OCT media. In some cases, PVDF membranes were used to help keep the nerves vertical in the OCT media. Thin sections (5-10 microns) were sliced on a Leica microtome (Leica Microsystems GmbH, Wetzlar Germany) and stored in a −80° C. freezer prior to staining with agents (1)-(5).
The agents were dissolved in DMSO to make a 10 mM stock solution. Slides containing nerve tissue sections were rinsed three times with PBS. The tissue sections were incubated with a solution of 10 uM of each fluorophore diluted in either PBS or a mixture of 99 uL DMSO, 100 uL cremaphor, 600 uL rat serum, and 200 uL PBS for 20 minutes. The slides were then washed with PBS for 5 min three times, cover-slipped with Vectashield and imaged on a Zeiss Axioimager microscope (Carl Zeiss Meditec, Inc., Oberkochen, Germany) at 200× magnification. A custom filter cube (excitation filter: 387 nm with 11 nm bandpass, 409 nm dichroic mirror; emission filter 409 nm long pass) was used to collect images for examination of morphology and for image analysis.
The control slides, containing the nerves with no agent (not shown), was negative under the same imaging conditions.

Data set [2] is described as follows: Dynamic light scattering measurement of aqueous solubility. Type of data set: physicochemical. The following applies: 25° C., angle of 173°, in nm (unit assumed). The procedure: Dynamic light scattering spectroscopy was used to measure aqueous solubility. Measurements were collected on a Malvern HPPS500 spectrometer (Malvern Instruments Inc., Southborough, Mass.). Samples were measured in a low volume disposable cuvette at 25° C., at an angle of 173°. Each sample was analyzed in duplicate. Z average measurements were taken to determine the relative molecular “size” of the formulation in terms of the hydrodynamic diameter (DH) radius in solution. DH is inversely related the z-average translational diffusion coefficient (D) in the solution.

Another data set deals with nerves. Kind of data set: In vivo fluorescence imaging of nerves. The arrangement: species or system mice. The following applies: for nerve-to-adipose tissue ratio: fluorescence emission of 600 nm, compared to agents (4) and (5), FIG. 2. Here is the method:
To assess the efficacy of the sulfonamide agents in-vivo the agents were formulated using the following excipients: 5-20% propylene glycol (v/v; JT Baker 9402-01), 5-30% 2-Hydroxylpropyl-β-Cyclodextrin (w/v; Sigma H5784) and 70-90% distilled/deionized water (v/v).
To prepare the pharmaceutical carrier, each excipient is added individually beginning with propylene glycol. Propylene glycol is added directly to the agent and vortexed for approximately 1 minute to guarantee maximal dispersal of the agent in the excipient. The next excipient to be added to the solution is 2-Hydroxylpropyl-β-Cyclodextrin. Cyclodextrin's are cyclic (R-1,4) linked oligosaccharides containing a relatively hydrophobic central cavity and hydrophilic outer surface. The application of cyclodextrin in formulation is to enhance the solubility of a compound in aqueous solutions. In formulation of the sulfonamide analogs a final concentration of 5-15%; 2-Hydroxypropyl β-cyclodextrin (w/v) is added to the solution. The formulation is again vortexed for 1-5 minutes and the pH adjusted to a final range between 4-5. The final step in the formulation is to bring the solution to the volume with distilled/deionized water.
Male CD-1 mice between 25-35 grams were purchased from Charles River Laboratories (Wilmington, Mass.). Prior to administration of the agent, animals were briefly anesthetized using 2% isofluorane. Each agent was then administered in a 15.2 mg/kg dose via tail vein catheterization. Each rodent was allowed to recover from anesthesia prior to returning to the home cage.
Structure (2) and (3) were administered at an average of 15 mg/kg formulated in the pharmaceutical carrier. Formulated agents were administered in mice 4 hours prior to imaging using a Zeiss Lumara microscope (Carl Zeiss Meditec, Inc., Oberkochen, Germany) with an attached CRI Nuance™ camera for multispectral fluorescence imaging (Cambridge Research & Instrumentation, Inc., Woburn, Mass.). The excitation wavelengths used were 406/15 nm or 460/60 nm.
The adjacent muscle tissues had very low background binding. […]

With `COc1cc(/C=C/c2ccc(S(=O)(=O)N3CCOCC3)cc2)ccc1/C=C/c1ccc(N)cc1` [(1)], in data set [1], the Excitation (DMSO) stood at 422 nm, the Excitation(MeOH) was found to be 392 nm, the ExcitationddH2O turned out to be 380 nm and the Emission(DMSO) stood at 621 nm. In data set [1], the Emission(MeOH) is 604 nm and the EmissionddH2O stood at 581 nm. For the same molecule, in the data set on nerve tissue sections, the “Nerve binding, ex vivo” value was “+” and the “staining of the trigeminal nerves” value is “myelinated donut-shaped structures are visible”.
With `COc1cc(/C=C/c2ccc(S(=O)(=O)N(CCO)CCO)cc2)ccc1/C=C/c1ccc(N)cc1` [(2)], in data set [1], the Excitation (DMSO) came out at 392 nm, the Excitation(MeOH) turned out to be 391 nm, the ExcitationddH2O came out at 409 nm and the Emission(DMSO) is 600 nm. In data set [1], this molecule had an Emission(MeOH) of 680 nm and an EmissionddH2O of 620 nm. In the data set on nerve tissue sections, the “Nerve binding, ex vivo” value is reported as “+” and the “staining of the trigeminal nerves” value is “myelinated donut-shaped structures are visible”.
In data set [1], `COc1cc(/C=C/c2ccc(S(=O)(=O)N3CCN(CCO)CC3)cc2)ccc1/C=C/c1ccc(N)cc1.Cl` [(3)] showed an Excitation (DMSO) of 388 nm, an Excitation(MeOH) of 380 nm, an ExcitationddH2O of 412 nm and an Emission(DMSO) of 615 nm. Besides, in data set [1], the Emission(MeOH) was 488 nm and the EmissionddH2O came to 626 nm. The Z-average in data set [2] is 29.70. Moreover, in the data set with nerve tissue sections, the “Nerve binding, ex vivo” value was “+” and the “staining of the trigeminal nerves” value is recorded as “myelinated donut-shaped structures are visible”.
Consider `COc1cc(/C=C/c2ccc(S(C)(=O)=O)cc2)ccc1/C=C/c1ccc(N)cc1` [(4)], for which, in data set [2], the Z-average is on record as 2210.00.
For `COc1cc(/C=C/c2ccc(C#N)cc2)ccc1/C=C/c1ccc(N)cc1` [(5)], the Z-average in data set [2] is listed as 7365.00. Moreover, in the data set on nerves (mice, FIG. 4), the “time at which nerve-to-muscle ratio is best” value was “four”.
For the molecule `COc1cc(/C=C/c2ccc(S(=O)(=O)N(CCO)CCO)cc2)ccc1/C=C/c1ccc(N)cc1` [Structure 2], the nerve-to-adipose tissue ratio result in the data set with nerves is “higher”.
Same read-out and setting: then `COc1cc(/C=C/c2ccc(S(=O)(=O)N3CCN(CCO)CC3)cc2)ccc1/C=C/c1ccc(N)cc1.Cl` [Structure 3], with “higher”.
